Laboratory results from ChEMBL document CHEMBL1129721, “Application of the Heck reaction in the synthesis of truncated naphthoic acid retinoids” (1996).
Calls of active or inactive are those of the source. The rule behind the calls is not given here.

Assays:
[1] = organism: Mus musculus; test: Concentration that induces 30% utriculi reduction in rhino mouse.; assay type: functional
[2] = target: T1, Retinoic acid receptor beta (Homo sapiens) (UniProt P10826); test: Transcriptional activation of retinoic acid RAR-beta receptor; Not active
T1 sequence (whole entry): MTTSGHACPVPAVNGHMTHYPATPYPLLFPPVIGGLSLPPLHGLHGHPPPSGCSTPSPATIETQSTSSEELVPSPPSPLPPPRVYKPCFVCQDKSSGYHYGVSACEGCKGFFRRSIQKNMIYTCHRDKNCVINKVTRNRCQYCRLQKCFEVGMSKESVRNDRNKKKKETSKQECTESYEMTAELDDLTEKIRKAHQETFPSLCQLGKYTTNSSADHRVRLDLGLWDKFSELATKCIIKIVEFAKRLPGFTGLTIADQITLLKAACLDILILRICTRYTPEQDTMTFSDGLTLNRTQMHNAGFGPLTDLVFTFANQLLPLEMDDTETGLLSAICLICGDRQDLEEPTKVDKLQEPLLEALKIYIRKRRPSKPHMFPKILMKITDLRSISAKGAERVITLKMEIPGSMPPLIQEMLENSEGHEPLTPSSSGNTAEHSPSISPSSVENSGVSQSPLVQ

[3] = target: T2, Retinoic acid receptor alpha (Homo sapiens) (UniProt P10276); test: Transcriptional activation of retinoic acid RAR-alpha receptor; Not active
T2 sequence (whole entry): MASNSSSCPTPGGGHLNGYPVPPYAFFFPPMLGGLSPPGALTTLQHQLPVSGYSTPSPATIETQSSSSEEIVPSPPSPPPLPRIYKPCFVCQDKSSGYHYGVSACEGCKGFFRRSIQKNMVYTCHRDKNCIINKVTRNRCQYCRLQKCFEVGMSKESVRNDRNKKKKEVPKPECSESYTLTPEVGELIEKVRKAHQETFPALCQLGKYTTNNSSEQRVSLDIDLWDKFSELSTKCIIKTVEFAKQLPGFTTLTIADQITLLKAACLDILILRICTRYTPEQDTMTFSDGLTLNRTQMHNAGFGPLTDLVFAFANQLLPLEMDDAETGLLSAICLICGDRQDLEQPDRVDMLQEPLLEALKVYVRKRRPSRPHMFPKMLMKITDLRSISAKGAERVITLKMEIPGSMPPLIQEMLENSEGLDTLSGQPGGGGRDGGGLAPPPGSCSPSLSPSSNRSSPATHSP

[4] = target: T3, Retinoic acid receptor gamma (Homo sapiens) (UniProt P13631); test: Transcriptional activation of retinoic acid RAR-gamma receptor; Not active
T3 sequence (whole entry): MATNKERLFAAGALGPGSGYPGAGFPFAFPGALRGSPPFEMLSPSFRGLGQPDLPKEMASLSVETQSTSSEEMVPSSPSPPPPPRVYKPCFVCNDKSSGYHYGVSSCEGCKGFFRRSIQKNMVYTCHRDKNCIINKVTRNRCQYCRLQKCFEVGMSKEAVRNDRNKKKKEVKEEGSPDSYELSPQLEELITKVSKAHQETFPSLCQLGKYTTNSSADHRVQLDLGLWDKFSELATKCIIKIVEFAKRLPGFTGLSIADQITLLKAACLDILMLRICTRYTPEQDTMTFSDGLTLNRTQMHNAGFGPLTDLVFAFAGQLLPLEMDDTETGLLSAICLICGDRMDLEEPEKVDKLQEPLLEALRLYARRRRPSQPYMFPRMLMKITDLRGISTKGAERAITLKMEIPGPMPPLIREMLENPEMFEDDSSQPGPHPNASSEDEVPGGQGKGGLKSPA

EC50 ratio [2]	EC50 ratio [3]	EC50 ratio [4]	SMILES	ED30 [1] [µM]
			CC1(C)CCC(C)(C)c2cc(C(=O)/C=C/c3ccc(C(=O)O)cc3)ccc21	3.4
			CC1(C)CCC(C)(C)c2cc(C(=O)c3ccc(/C=C/C(=O)O)cc3)ccc21	54
			CC1(C)CCC(C)(C)c2cc(C(=O)c3ccc4cc(C(=O)O)ccc4c3)ccc21	29
inactive	inactive		CC1(C)CCC(C)(C)c2cc(C(=O)c3cccc(/C=C/C(=O)O)c3)ccc21	
inactive	inactive	inactive	CC1(C)CCC(C)(C)c2cc(C(O)c3cccc(/C=C/C(=O)O)c3)ccc21 (stereo unspecified)	
			CC1(C)CCC(C)(C)c2cc(C(O)/C=C/c3ccc(C(=O)O)cc3)ccc21 (stereo unspecified)	65
inactive	inactive	inactive	CC1(C)CCC(C)(C)c2cc(C(O)c3ccc(/C=C/C(=O)O)cc3)ccc21 (stereo unspecified)	1740
			CC1(C)CCC(C)(C)c2cc(C(O)c3ccc4cc(C(=O)O)ccc4c3)ccc21 (stereo unspecified)	223
	inactive		CC1(C)CCC(C)(C)c2cc(C(=O)c3ccc(C#CC(=O)O)cc3)ccc21	1000
			C/C(=C\c1ccc(C(=O)c2ccc3c(c2)C(C)(C)CCC3(C)C)cc1)C(=O)O	92
	inactive		CC1(C)CCC(C)(C)c2cc(C(=O)c3ccc(/C=C\C(=O)O)cc3)ccc21	
	inactive		C/C(=C\C(=O)O)c1ccc(C(=O)c2ccc3c(c2)C(C)(C)CCC3(C)C)cc1	
	inactive		Cc1cc(C(=O)c2ccc3c(c2)C(C)(C)CCC3(C)C)ccc1/C=C/C(=O)O	184
